According to patent US4737510A, “Bioactive metabolites from the caribbean sponge agelas coniferin” (priority 1986, dated 1988):
“And” between values parts separate entries of the source, which are not always exact repeats. Equal entries are not always repeated. Where two headings read alike, the source gives them in different places.

How the values were obtained:
[1] = system: Monkey Kidney Cells (CV-1); test: Cytotoxicity to monkey kidney cells (CV-1) determined by Dr. R. G. Hughes, Jr.; settings: 8 or less essentially indicates noncytotoxicity
[2] = system: Herpes Simplex Virus type 1 (HSV-1); test: Antiviral activity against HSV-1 determined by Dr. R. G. Hughes, Jr.;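 also: grades: +++ strong ++ moderate + light ± questionable - negative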; format: cell-based
[3] = system: vesicular stomatitis virus (VSV); test: microbe, parasite or virus in culture; format: cell-based; settings: Vesicular stomatitis virus, in Primates
E. coli strain BR339 = format: cell-based
[4] = system: Herpes simplex virus, type I (HSV-1); test: microbe, parasite or virus in culture; format: cell-based; settings: Human alphaherpesvirus 1, in Primates
Escherichia coli = test: Disc diffusion antimicrobial assay, Escherichia coli; format: cell-based; settings: for zone of inhibition at 10 µg/disc / zone of inhibition at 50 µg/disc / zone of inhibition at 100 µg/disc: Escherichia coli, 6.5 mm disc, read-out: diameter of the clear zone of inhibition; for zone of inhibition at 50 µg/disc: 50 μg/disk; for zone of inhibition at 100 µg/disc: 100 μg/disk
Bacillus subtilis = test: Disc diffusion antimicrobial assay, Bacillus subtilis; format: cell-based; settings: for zone of inhibition at 10 µg/disc / zone of inhibition at 50 µg/disc / zone of inhibition at 100 µg/disc: Bacillus subtilis, 6.5 mm disc, read-out: diameter of the clear zone of inhibition; for zone of inhibition at 50 µg/disc: 50 μg/disk; for zone of inhibition at 100 µg/disc: 100 μg/disk
[5] = read-out: antiviral activity, VSV, ++ scale
[6] = read-out: antiviral activity, VSV, zone diameter
[7] = read-out: antiviral activity, HSV-1, ++ scale
[8] = read-out: antiviral activity, HSV-1, zone diameter

For `Nc1ncc([C@@H]2[C@@H](CNC(=O)c3ccc[nH]3)[C@H](CNC(=O)c3cc(Br)c[nH]3)[C@H]2c2cnc(N)[nH]2)[nH]1` (relative stereo) [Compound 1a, Debromosceptrin Acetate], the “cytotoxicity, zone diameter” value ([1]; 25 μg/disk) was 5 mm, the “cytotoxicity, zone diameter” value ([1]; 50 μg/disk) was 5 mm and the “cytotoxicity, zone diameter” value ([1]; 100 μg/disk) was 5 mm. For the same compound, the HSV-1 activity ([2]; 25 μg/disk) was “±”, the HSV-1 activity ([2]; 50 μg/disk) was “±” and the HSV-1 activity ([2]; 100 μg/disk) was “±”. The zone of inhibition at 20 µg/disc [3, 5] was under 7 mm, the zone of inhibition at 50 µg/disc [3, 5] was under 7 mm and the zone of inhibition at 100 µg/disc [3, 5] was 7 mm. It also gave a zone of inhibition at 200 µg/disc [3, 5] of 8 to 10 mm, a zone of inhibition at 20 µg/disc [3, 6] of 0 mm and a zone of inhibition at 50 µg/disc [3, 6] of 0 mm. For the same compound, the zone of inhibition at 100 µg/disc [3, 6] was 7 mm, the zone of inhibition at 200 µg/disc [3, 6] was 8 mm and the “BIA activity” value (E. coli strain BR339) was “inducers”. For the same compound, the “BIA activity, numerical color intensity scale 0-10” value (E. coli strain BR339) was 10 and 7 and 6, the zone of inhibition at 20 µg/disc [4, 7] was 11 to 15 mm and the zone of inhibition at 50 µg/disc [4, 7] was 11 to 15 mm. For the same compound, the zone of inhibition at 100 µg/disc [4, 7] was 11 to 15 mm, the zone of inhibition at 200 µg/disc [4, 7] was over 16 mm and the zone of inhibition at 20 µg/disc [4, 8] was 11 mm. For the same compound, the zone of inhibition at 50 µg/disc [4, 8] was 12 mm, the zone of inhibition at 100 µg/disc [4, 8] was 15 mm and the zone of inhibition at 200 µg/disc [4, 8] was 18 mm. It also gave a zone of inhibition at 10 µg/disc (Escherichia coli; 10 μg/disk) of 0 mm, a zone of inhibition at 50 µg/disc (Escherichia coli) of 8 mm and a zone of inhibition at 100 µg/disc (Escherichia coli) of 11 mm. The “growth inhibition of Bacillus subtilis” value (Bacillus subtilis; 10 μg/disk) was “most active”, the zone of inhibition at 10 µg/disc (Bacillus subtilis; 10 μg/disk) was 7 mm and the zone of inhibition at 50 µg/disc (Bacillus subtilis) was 11 mm. It also gave a zone of inhibition at 100 µg/disc (Bacillus subtilis) of 12 mm.
In the case of `Nc1ncc([C@@H]2[C@@H](CNC(=O)c3cc(Br)c(Br)[nH]3)[C@H](CNC(=O)c3cc(Br)c(Br)[nH]3)[C@H]2c2cnc(N)[nH]2)[nH]1` (relative stereo) [Compound 3a, Dibromosceptrin Acetate], the “cytotoxicity, zone diameter” value ([1]; 25 μg/disk) was 5 mm, the “cytotoxicity, zone diameter” value ([1]; 50 μg/disk) was 5 mm and the “cytotoxicity, zone diameter” value ([1]; 100 μg/disk) was 7 mm. The HSV-1 activity ([2]; 25 μg/disk) was “-”, the HSV-1 activity ([2]; 50 μg/disk) was “++” and the HSV-1 activity ([2]; 100 μg/disk) was “+++”. The zone of inhibition at 20 µg/disc [3, 5] was under 7 mm, the zone of inhibition at 100 µg/disc [3, 5] was 8 to 10 mm and the zone of inhibition at 200 µg/disc [3, 5] was 11 to 15 mm. For the same compound, the zone of inhibition at 20 µg/disc [3, 6] was 0 mm, the zone of inhibition at 100 µg/disc [3, 6] was 10 mm and the zone of inhibition at 200 µg/disc [3, 6] was 12 mm. For the same compound, the “BIA activity” value (E. coli strain BR339) was “somewhat less active”, the “BIA activity, numerical color intensity scale 0-10” value (E. coli strain BR339) was 3 and 2 and the zone of inhibition at 20 µg/disc [4, 7] was 8 to 10 mm. It also gave a zone of inhibition at 50 µg/disc [4, 7] of 11 to 15 mm, a zone of inhibition at 100 µg/disc [4, 7] of 11 to 15 mm and a zone of inhibition at 200 µg/disc [4, 7] of 11 to 15 mm. The zone of inhibition at 20 µg/disc [4, 8] was 9 mm, the zone of inhibition at 50 µg/disc [4, 8] was 11 mm and the zone of inhibition at 100 µg/disc [4, 8] was 12 mm. It also gave a zone of inhibition at 200 µg/disc [4, 8] of 14 mm, a zone of inhibition at 10 µg/disc (Escherichia coli; 10 μg/disk) of 0 mm and a zone of inhibition at 50 µg/disc (Escherichia coli) of 7 mm. For the same compound, the zone of inhibition at 100 µg/disc (Escherichia coli) was 7 mm, the zone of inhibition at 10 µg/disc (Bacillus subtilis; 10 μg/disk) was 0 mm and the zone of inhibition at 50 µg/disc (Bacillus subtilis) was 10 mm. The zone of inhibition at 100 µg/disc (Bacillus subtilis) was 10 mm.
In the case of `Nc1ncc(C2c3nc(N)[nH]c3CC(CNC(=O)c3cc(Br)c(Br)[nH]3)C2CNC(=O)c2cc(Br)c[nH]2)[nH]1` (centres unmarked) [Compound 5a, Bromoageliferin Acetate], the “cytotoxicity, zone diameter” value ([1]; 25 μg/disk) was 5 mm, the “cytotoxicity, zone diameter” value ([1]; 50 μg/disk) was 5 mm and the “cytotoxicity, zone diameter” value ([1]; 100 μg/disk) was 7 mm. For the same compound, the HSV-1 activity ([2]; 25 μg/disk) was “-”, the HSV-1 activity ([2]; 50 μg/disk) was “±” and the HSV-1 activity ([2]; 100 μg/disk) was “++”. It also gave a zone of inhibition at 20 µg/disc [3, 5] of under 7 mm, a zone of inhibition at 50 µg/disc [3, 5] of under 7 mm and a zone of inhibition at 100 µg/disc [3, 5] of 8 to 10 mm. It also gave a zone of inhibition at 200 µg/disc [3, 5] of 8 to 10 mm, a zone of inhibition at 20 µg/disc [3, 6] of 0 mm and a zone of inhibition at 50 µg/disc [3, 6] of 0 mm. The zone of inhibition at 100 µg/disc [3, 6] was 10 mm, the zone of inhibition at 200 µg/disc [3, 6] was 10 mm and the “BIA activity, numerical color intensity scale 0-10” value (E. coli strain BR339) was 3 and 2. For the same compound, the zone of inhibition at 20 µg/disc [4, 7] was 8 to 10 mm, the zone of inhibition at 50 µg/disc [4, 7] was 11 to 15 mm and the zone of inhibition at 100 µg/disc [4, 7] was 11 to 15 mm. The zone of inhibition at 200 µg/disc [4, 7] was 11 to 15 mm, the zone of inhibition at 20 µg/disc [4, 8] was 9 mm and the zone of inhibition at 50 µg/disc [4, 8] was 11 mm. For the same compound, the zone of inhibition at 100 µg/disc [4, 8] was 11 mm, the zone of inhibition at 200 µg/disc [4, 8] was 13 mm and the “activity against Escherichia coli” value (Escherichia coli; 10 μg/disk) was “active”. The zone of inhibition at 10 µg/disc (Escherichia coli; 10 μg/disk) was 7 mm, the zone of inhibition at 50 µg/disc (Escherichia coli) was 8 mm and the zone of inhibition at 100 µg/disc (Escherichia coli) was 8 mm. For the same compound, the zone of inhibition at 10 µg/disc (Bacillus subtilis; 10 μg/disk) was 10 mm, the zone of inhibition at 50 µg/disc (Bacillus subtilis) was 12 mm and the zone of inhibition at 100 µg/disc (Bacillus subtilis) was 12 mm.
